Measurements taken from PubChem BioAssay AID330 (DTP/NCI, 2004).
Values joined by “and” are separate entries in the source; they are usually repeats but may differ in a detail not shown here. Identical values can stand only once. Toxic doses and inconclusive results are not listed. How the source made its calls: active means survival T/C of 150% or more; inactive means T/C below 125% in these data.

Tested on: P388 leukemia ip, CD2F1 mice, survival T/C
Assay: NCI In Vivo Anticancer Drug Screen. Data for tumor model P388 Leukemia (intraperitoneal) in CD2F1 (CDF1) mice
Conditions: endpoint: median survival time, higher = longer survival
Summary of the method: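 Mice carrying the transplanted tumor received test compound or vehicle. Survival was recorded in each group, and the value is the treated-group measurement divided by that of the vehicle-treated control group.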

[1] = dose: 50.0 mg/kg/injection, schedule: Q01DX005 (ip), vehicle: saline with Tween-80
[2] = dose: 100.0 mg/kg/injection, schedule: Q01DX005 (ip), vehicle: saline with Tween-80
[3] = dose: 50.0 mg/kg/injection, schedule: Q01DX009 (ip), vehicle: saline
[4] = dose: 50.0 mg/kg/injection, schedule: Q01DX005 (ip), vehicle: Klucel (hydroxypropylcellulose) (HPC)
[5] = dose: 50.0 mg/kg/injection, schedule: Q04DX003 (ip), vehicle: saline with Tween-80
[6] = dose: 100.0 mg/kg/injection, schedule: Q04DX003 (ip), vehicle: saline with Tween-80
[7] = dose: 200.0 mg/kg/injection, schedule: Q04DX003 (ip), vehicle: saline with Tween-80
[8] = dose: 50.0 mg/kg/injection, schedule: Q01DX009 (ip), vehicle: saline with Tween-80
[9] = dose: 100.0 mg/kg/injection, schedule: Q01DX009 (ip), vehicle: saline with Tween-80

Measured: T/C

CC1(C)N=C(N)N=C(N)N1c1ccc(Cl)cc1Cl
inactive: dose: 12.0 mg/kg/injection, schedule: Q01DX005 (ip), vehicle: saline 102 % of control | dose: 25.0 mg/kg/injection, schedule: Q01DX005 (ip), vehicle: saline 100 % of control | dose: 50.0 mg/kg/injection, schedule: Q01DX005 (ip), vehicle: saline 104 % of control and 98 % of control

O=C(OCC(OC(=O)c1ccccc1)C(OC(=O)c1ccccc1)C(OC(=O)c1ccccc1)c1nn[nH]n1)c1ccccc1 (centres undefined)
inactive: [1] 100 % of control | [2] 100 % of control | dose: 200.0 mg/kg/injection, schedule: Q01DX005 (ip), vehicle: saline with Tween-80 95 % of control

COc1ccc2c(c1O)-c1cc(O)cc3c1[C@@H](C2)N(C)CC3
inactive: [1] 104 % of control | [2] 104 % of control

COc1ccc(OC)c(N2C(=O)C(=O)C(C(C)=O)C2=O)c1 (centres undefined)
inactive: dose: 50.0 mg/kg/injection, schedule: Q01DX009 (ip), vehicle: Klucel (hydroxypropylcellulose) (HPC) 107 % of control | dose: 100.0 mg/kg/injection, schedule: Q01DX009 (ip), vehicle: Klucel (hydroxypropylcellulose) (HPC) 101 % of control | dose: 200.0 mg/kg/injection, schedule: Q01DX009 (ip), vehicle: Klucel (hydroxypropylcellulose) (HPC) 105 % of control

COP(=O)(OC)C(O)C1CCCCC1 (centres undefined)
inactive: dose: 12.5 mg/kg/injection, schedule: Q01DX009 (ip), vehicle: saline 100 % of control | dose: 25.0 mg/kg/injection, schedule: Q01DX009 (ip), vehicle: saline 116 % of control | [3] 100 % of control and 106 % of control | dose: 200.0 mg/kg/injection, schedule: Q01DX009 (ip), vehicle: saline 99 % of control

CCOC(=O)Cc1cc2cc(OCC)ncc2cc1C
inactive: dose: 6.25 mg/kg/injection, schedule: Q01DX009 (ip), vehicle: distilled water + Tween-80 91 % of control | dose: 12.5 mg/kg/injection, schedule: Q01DX009 (ip), vehicle: distilled water + Tween-80 89 % of control | dose: 25.0 mg/kg/injection, schedule: Q01DX009 (ip), vehicle: distilled water + Tween-80 103 % of control | dose: 50.0 mg/kg/injection, schedule: Q01DX009 (ip), vehicle: distilled water + Tween-80 99 % of control | dose: 100.0 mg/kg/injection, schedule: Q01DX009 (ip), vehicle: distilled water + Tween-80 94 % of control | dose: 200.0 mg/kg/injection, schedule: Q01DX009 (ip), vehicle: distilled water + Tween-80 109 % of control | dose: 400.0 mg/kg/injection, schedule: Q01DX009 (ip), vehicle: distilled water + Tween-80 102 % of control

c1ccc(C(NC2CC3CCC2C3)c2ccccc2)cc1 (centres undefined)
inactive: dose: 37.5 mg/kg/injection, schedule: Q01DX009 (ip), vehicle: saline with Tween-80 100 % of control | dose: 75.0 mg/kg/injection, schedule: Q01DX009 (ip), vehicle: saline with Tween-80 95 % of control

O=S(Cl)C(Cl)=C(Cl)Cl (centres undefined)
inactive: [4] 106 % of control | dose: 100.0 mg/kg/injection, schedule: Q01DX005 (ip), vehicle: Klucel (hydroxypropylcellulose) (HPC) 104 % of control | dose: 200.0 mg/kg/injection, schedule: Q01DX005 (ip), vehicle: Klucel (hydroxypropylcellulose) (HPC) 103 % of control

O=C(Nc1ccc(Cl)cc1C(=O)c1ccccn1)c1ccccc1
inactive: dose: 12.5 mg/kg/injection, schedule: Q04DX003 (ip), vehicle: saline with Tween-80 107 % of control | dose: 25.0 mg/kg/injection, schedule: Q04DX003 (ip), vehicle: saline with Tween-80 93 % of control | [5] 108 % of control | [6] 94 % of control | [7] 97 % of control

N#Cc1ncc(-c2ccccc2)nc1Cl
inactive: dose: 6.25 mg/kg/injection, schedule: Q01DX009 (ip), vehicle: saline with Tween-80 100 % of control | dose: 12.5 mg/kg/injection, schedule: Q01DX009 (ip), vehicle: saline with Tween-80 104 % of control | dose: 25.0 mg/kg/injection, schedule: Q01DX009 (ip), vehicle: saline with Tween-80 100 % of control | [8] 110 % of control | [5] 100 % of control | [9] 120 % of control | [6] 105 % of control | [7] 100 % of control

Nc1ccc(C(=O)O)c(C(=O)O)c1
inactive: [8] 100 % of control | [5] 91 % of control | [9] 104 % of control | [6] 91 % of control | dose: 200.0 mg/kg/injection, schedule: Q01DX009 (ip), vehicle: saline with Tween-80 100 % of control | [7] 91 % of control

O=C(O)c1cocc1C(=O)O
inactive: dose: 60.0 mg/kg/injection, schedule: Q01DX005 (ip), vehicle: saline 99 % of control | dose: 120.0 mg/kg/injection, schedule: Q01DX005 (ip), vehicle: saline 86 % of control

COc1ccc2c(c1OC)C(=O)O/C2=C/c1c(CCN(C)C)cc2c(c1O)OCO2
inactive: dose: 53.0 micrograms/kg/injection, schedule: Q01DX005 (ip), vehicle: Klucel (hydroxypropylcellulose) (HPC) 104 % of control | dose: 105.0 micrograms/kg/injection, schedule: Q01DX005 (ip), vehicle: Klucel (hydroxypropylcellulose) (HPC) 91 % of control | dose: 210.0 micrograms/kg/injection, schedule: Q01DX005 (ip), vehicle: Klucel (hydroxypropylcellulose) (HPC) 96 % of control | dose: 420.0 micrograms/kg/injection, schedule: Q01DX005 (ip), vehicle: Klucel (hydroxypropylcellulose) (HPC) 102 % of control

CC(C)(C)[Si](C)(C)O[C@@H]1C=C(S(=O)(=O)c2ccccc2)[C@H](N2CCSCC2)C1
inactive: dose: 12.5 mg/kg/injection, schedule: Q01DX005 (ip), vehicle: Klucel (hydroxypropylcellulose) (HPC) 101 % of control | dose: 25.0 mg/kg/injection, schedule: Q01DX005 (ip), vehicle: Klucel (hydroxypropylcellulose) (HPC) 97 % of control | [4] 92 % of control

NNc1cc2c(nn1)CCN(C(=O)c1ccccc1)C2
inactive: [3] 98 % of control | dose: 100.0 mg/kg/injection, schedule: Q01DX009 (ip), vehicle: saline 108 % of control

COc1ccc(/C=N/NC(=O)/C(C#N)=C/c2ccc(OC)cc2)cc1
inactive: dose: 100.0 mg/kg/injection, schedule: Q04DX003 (ip), vehicle: saline 110 % of control | dose: 200.0 mg/kg/injection, schedule: Q04DX003 (ip), vehicle: saline 105 % of control | dose: 400.0 mg/kg/injection, schedule: Q04DX003 (ip), vehicle: saline 95 % of control

CC(=O)C[n+]1ccccc1-c1ccccc1C
inactive: [1] 103 % of control

CC/C(=C(\c1ccccc1)c1ccc(OCCNC)cc1)c1ccccc1
inactive: dose: 15.0 mg/kg/injection, schedule: Q01DX005 (ip), vehicle: Klucel (hydroxypropylcellulose) (HPC) 98 % of control | dose: 30.0 mg/kg/injection, schedule: Q01DX005 (ip), vehicle: Klucel (hydroxypropylcellulose) (HPC) 88 % of control | dose: 60.0 mg/kg/injection, schedule: Q01DX005 (ip), vehicle: Klucel (hydroxypropylcellulose) (HPC) 92 % of control

CCCCCCCCCCCC1C=CCC1 (centres undefined)
inactive: dose: 100.0 mg/kg/injection, schedule: Q01DX001 (ip), vehicle: saline 99 % of control | dose: 200.0 mg/kg/injection, schedule: Q01DX001 (ip), vehicle: saline 100 % of control | dose: 400.0 mg/kg/injection, schedule: Q01DX001 (ip), vehicle: saline 100 % of control

CC1CCC(c2ccoc2)N2C1CCC(C)(Sc1ccccc1)C2O (centres undefined)
inactive: dose: 5.5 mg/kg/injection, schedule: Q01DX004 (ip), vehicle: DMSO 95 % of control | dose: 11.0 mg/kg/injection, schedule: Q01DX004 (ip), vehicle: DMSO 115 % of control | dose: 22.0 mg/kg/injection, schedule: Q01DX004 (ip), vehicle: DMSO 113 % of control | dose: 25.0 mg/kg/injection, schedule: Q01DX001 (ip), vehicle: other 103 % of control | dose: 44.0 mg/kg/injection, schedule: Q01DX004 (ip), vehicle: DMSO 105 % of control | dose: 50.0 mg/kg/injection, schedule: Q01DX001 (ip), vehicle: other 98 % of control | dose: 100.0 mg/kg/injection, schedule: Q01DX001 (ip), vehicle: other 98 % of control
